According to patent US4868321A, “Isothiocyanate intermediates” (FMC Corporation, priority 1988, dated 1989):
Where a name gives a salt, the structure may show the parent alone.

What was measured:
Format in all cases: in vivo
[1] = test system: Morningglory; assay: Preemergence Herbicidal Activity, Morningglory; conditions: Ipomoea, pre-emergence; for pest or weed control at 250 g/ha: 0.25 kg/ha
How it was run: (§1)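 Pre-/postemergence screen; compound typically dissolved in acetone/water 50/50; dose in kg/ha; read-out = % control.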

[2] = test system: Field Bindweed; assay: Postemergence Herbicidal Activity, Field Bindweed; conditions: post-emergence; for pest or weed control at 250 g/ha: 0.25 kg/ha
How it was run: as §1

[3] = test system: Johnsongrass; assay: Postemergence Herbicidal Activity, Johnsongrass; conditions: Sorghum halepense, post-emergence; for pest or weed control at 250 g/ha: 0.25 kg/ha
How it was run: (§2)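 Herbicidal response was graded as percent control. Compound rates were in kg/ha.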

[4] = test system: Velvetleaf; assay: Preemergence Herbicidal Activity, Velvetleaf; conditions: Abutilon theophrasti, pre-emergence; for pest or weed control at 250 g/ha: 0.25 kg/ha
How it was run: as §1

[5] = test system: Cotton; assay: Preemergence Herbicidal Activity, Cotton; conditions: Gossypium hirsutum, pre-emergence; for plant injury at 250 g/ha: 0.25 kg/ha
How it was run: as §1

[6] = test system: Cotton; assay: Postemergence Herbicidal Activity, Cotton; conditions: Gossypium hirsutum, post-emergence; for plant injury at 250 g/ha: 0.25 kg/ha
How it was run: as §1

[7] = test system: Rice; assay: Preemergence Herbicidal Activity, Rice; conditions: Oryza sativa, pre-emergence; for plant injury at 250 g/ha: 0.25 kg/ha
How it was run: (§3)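 Test compounds are dosed on a per-area basis (kg/ha); plant response is reported as % C.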

[8] = test system: Rice; assay: Postemergence Herbicidal Activity, Rice; conditions: Oryza sativa, post-emergence; for plant injury at 250 g/ha: 0.25 kg/ha
How it was run: as §3

[9] = test system: Wheat; assay: Preemergence Herbicidal Activity, Wheat; conditions: Triticum aestivum, pre-emergence; for plant injury at 250 g/ha: 0.25 kg/ha
How it was run: as §3

[10] = test system: Soybean; assay: Postemergence Herbicidal Activity, Soybean; conditions: Glycine max, post-emergence; for plant injury at 250 g/ha: 0.25 kg/ha
How it was run: as §3

[11] = test system: Field Corn; assay: Preemergence Herbicidal Activity, Field Corn; conditions: Zea mays, pre-emergence; for plant injury at 250 g/ha: 0.25 kg/ha
How it was run: as §3

[12] = test system: Morningglory; assay: Postemergence Herbicidal Activity, Morningglory; conditions: Ipomoea, post-emergence; for pest or weed control at 250 g/ha: 0.25 kg/ha
How it was run: as §1

[13] = test system: Velvetleaf; assay: Postemergence Herbicidal Activity, Velvetleaf; conditions: Abutilon theophrasti, post-emergence; for pest or weed control at 250 g/ha: 0.25 kg/ha
How it was run: as §1

[14] = test system: Field Corn; assay: Postemergence Herbicidal Activity, Field Corn; conditions: Zea mays, post-emergence; for plant injury at 250 g/ha: 0.25 kg/ha
How it was run: as §3

[15] = test system: Green Foxtail; assay: Preemergence Herbicidal Activity, Green Foxtail; conditions: Setaria viridis, pre-emergence; for pest or weed control at 250 g/ha: 0.25 kg/ha
How it was run: as §2

[16] = test system: Soybean; assay: Preemergence Herbicidal Activity, Soybean; conditions: Glycine max, pre-emergence; for plant injury at 250 g/ha: 0.25 kg/ha
How it was run: as §3

[17] = test system: Johnsongrass; assay: Preemergence Herbicidal Activity, Johnsongrass; conditions: Sorghum halepense, pre-emergence; for pest or weed control at 250 g/ha: 0.25 kg/ha
How it was run: as §2

[18] = test system: Green Foxtail; assay: Postemergence Herbicidal Activity, Green Foxtail; conditions: Setaria viridis, post-emergence; for pest or weed control at 250 g/ha: 0.25 kg/ha
How it was run: as §2

[19] = test system: Barnyardgrass; assay: Postemergence Herbicidal Activity, Barnyardgrass; conditions: Echinochloa crus-galli, post-emergence; for pest or weed control at 250 g/ha: 0.25 kg/ha
How it was run: as §2

[20] = test system: Barnyardgrass; assay: Preemergence Herbicidal Activity, Barnyardgrass; conditions: Echinochloa crus-galli, pre-emergence; for pest or weed control at 250 g/ha: 0.25 kg/ha
How it was run: as §2

[21] = test system: Wheat; assay: Postemergence Herbicidal Activity, Wheat; conditions: Triticum aestivum, post-emergence; for plant injury at 250 g/ha: 0.25 kg/ha
How it was run: as §3

[22] = test system: Field Bindweed; assay: Preemergence Herbicidal Activity, Field Bindweed; conditions: pre-emergence; for pest or weed control at 250 g/ha: 0.25 kg/ha
How it was run: as §1

Structure (SMILES): O=c1n(CCCF)nnn1-c1cc(NS(=O)(=O)C(F)(F)F)c(Cl)cc1F [Compound 30, 1-[4-Chloro-2-fluoro-5-(N-trifluoromethylsulfonylamino)phenyl]-1,4-dihydro-4-(3-fluoropropyl)-5H-tetrazol-5-one]
- pest or weed control at 250 g/ha [1]: 60%
- pest or weed control at 250 g/ha [2]: 70%
- pest or weed control at 250 g/ha [3]: 0%
- pest or weed control at 250 g/ha [4]: 100%
- plant injury at 250 g/ha [5]: 50%
- plant injury at 250 g/ha [6]: 90%
- plant injury at 250 g/ha [7]: 20%
- plant injury at 250 g/ha [8]: 10%
- plant injury at 250 g/ha [9]: 0%
- plant injury at 250 g/ha [10]: 40%
- plant injury at 250 g/ha [11]: 10%
- pest or weed control at 250 g/ha [12]: 80%
- pest or weed control at 250 g/ha [13]: 100%
- plant injury at 250 g/ha [14]: 30%
- pest or weed control at 250 g/ha [15]: 10%
- plant injury at 250 g/ha [16]: 10%
- pest or weed control at 250 g/ha [17]: 60%
- pest or weed control at 250 g/ha [18]: 0%
- pest or weed control at 250 g/ha [19]: 10%
- pest or weed control at 250 g/ha [20]: 0%
- plant injury at 250 g/ha [21]: 10%
- pest or weed control at 250 g/ha [22]: 95%

Structure (SMILES): O=c1n(CCCF)nnn1-c1cc(NS(=O)(=O)C(F)(F)F)c(Cl)cc1F [Compound 32, 1-[4-Chloro-2-fluoro-5-(N--trifluoromethylsulfonylamino)phenyl]-1,4-dihydro-4-(3-fluoropropyl)-5H--tetrazol-5-one potassium salt]
- pest or weed control at 2000 g/ha ([1]; 2.0 kg/ha): 100%
- pest or weed control at 2000 g/ha ([2]; 2.0 kg/ha): 100%
- pest or weed control at 2000 g/ha ([3]; 2.0 kg/ha): 70%
- pest or weed control at 2000 g/ha ([4]; 2.0 kg/ha): 100%
- plant injury at 2000 g/ha ([5]; 2.0 kg/ha): 100%
- plant injury at 2000 g/ha ([6]; 2.0 kg/ha): 100%
- plant injury at 2000 g/ha ([7]; 2.0 kg/ha): 95%
- plant injury at 2000 g/ha ([8]; 2.0 kg/ha): 40%
- plant injury at 2000 g/ha ([9]; 2.0 kg/ha): 10%
- plant injury at 2000 g/ha ([10]; 2.0 kg/ha): 100%
- plant injury at 2000 g/ha ([11]; 2.0 kg/ha): 50%
- pest or weed control at 2000 g/ha ([12]; 2.0 kg/ha): 100%
- pest or weed control at 2000 g/ha ([13]; 2.0 kg/ha): 100%
- plant injury at 2000 g/ha ([14]; 2.0 kg/ha): 70%
- pest or weed control at 2000 g/ha ([15]; 2.0 kg/ha): 60%
- plant injury at 2000 g/ha ([16]; 2.0 kg/ha): 40%
- pest or weed control at 2000 g/ha ([17]; 2.0 kg/ha): 80%
- pest or weed control at 2000 g/ha ([18]; 2.0 kg/ha): 40%
- pest or weed control at 2000 g/ha ([19]; 2.0 kg/ha): 70%
- pest or weed control at 2000 g/ha ([20]; 2.0 kg/ha): 95%
- plant injury at 2000 g/ha ([21]; 2.0 kg/ha): 40%
- pest or weed control at 2000 g/ha ([22]; 2.0 kg/ha): 100%

Structure (SMILES): CS(=O)(=O)Nc1cc(-n2nnn(CCCF)c2=O)c(F)cc1Br [Compound 33, 1-[4-Bromo-2-fluoro-5-(N--methylsulfonylamino)phenyl]-1,4-dihydro-(3-fluoropropyl)-5H--tetrazol-5-one]
- pest or weed control at 250 g/ha [1]: 100%
- pest or weed control at 250 g/ha [2]: 100%
- pest or weed control at 250 g/ha [3]: 70%
- pest or weed control at 250 g/ha [4]: 100%
- plant injury at 250 g/ha [5]: 100%
- plant injury at 250 g/ha [6]: 100%
- plant injury at 250 g/ha [7]: 80%
- plant injury at 250 g/ha [8]: 80%
- plant injury at 250 g/ha [9]: 20%
- plant injury at 250 g/ha [10]: 70%
- plant injury at 250 g/ha [11]: 40%
- pest or weed control at 250 g/ha [12]: 100%
- pest or weed control at 250 g/ha [13]: 100%
- plant injury at 250 g/ha [14]: 30%
- pest or weed control at 250 g/ha [15]: 70%
- plant injury at 250 g/ha [16]: 10%
- pest or weed control at 250 g/ha [17]: 70%
- pest or weed control at 250 g/ha [18]: 100%
- pest or weed control at 250 g/ha [19]: 80%
- pest or weed control at 250 g/ha [20]: 95%
- plant injury at 250 g/ha [21]: 40%
- pest or weed control at 250 g/ha [22]: 100%
